Laboratory results published in patent US8530636B2, “Method for regulating protein function in cells in vivo using synthetic small molecules” (priority 2008, dated 2013).
“Also recorded” adds a separate entry of the source.

How the values were obtained:
[1] = cited from earlier work
[2] = target: T1, FKBP L106P-YFP fusion (Homo sapiens, UniProt P62942, F37V); test: Shield1 dose-response of FKBP-YFP fluorescence, flow cytometry; type: cell-based
T1 construct: expressed in transfected cells
Protocol: (§1) Experiments were performed in triplicate.

[3] = target: T2, FKBP variant V24A-YFP fusion protein (Homo sapiens, UniProt P62942, F37V/V25A); test: as above; type: cell-based; details: NIH3T3 cells stably expressing V24A FKBP-YFP
T2 construct: expressed in transfected cells; host or cells: NIH3T3 (retroviral transduction)
Protocol: as §1

[4] = target: T3, L106P-tsLuc (Homo sapiens, UniProt P62942, F37V); test: In vivo bioluminescence imaging of HCT116 L106P-luciferase xenografts; set-up: species or system SCID mice
T3 construct: expressed in transfected cells

[5] = target: T4, L-L106P-IL-2 (Homo sapiens, UniProt P60568); test: IL-2 secreted by HCT116 L-L106P-IL-2 cells, ELISA of culture media; type: cell-based; details: dose-dependent on Shield1 in the media
T4 construct: IL-2 signal peptide (L), human IL-2 (N); expressed in transfected cells; in culture (A11) or as xenograft in CD1 nu-/nu- mice (A13)
Protocol: (§2) FIGS. 22A-22D show graphs relating to the conditional stabilization of a secreted immunomodulatory protein leads. […] Data are represented as the average IL-2 concentration ±SEM (n=3). […] Tumor volume was determined by caliper measurement and monitored over time. Data are represented as the average tumor volume ±SEM (n=5).
Interleukin-2 (IL-2) is a cytokine that is instrumental in immune response, inducing the differentiation and proliferation of a variety of lymphocyte populations (Gaffen, S. L. and Liu, K. D. (2004) Cytokine 28:109-23). Recombinant IL-2 is approved for clinical treatment of renal cancers and is used in a variety of other cancer therapies. Polynucleotides encoding the L106P stability-affecting protein were inserted between polynucleotides of the IL-2 gene that encode the signal peptide and the remainder of the IL-2 protein to produce the chimeric gene, L-L106P-IL-2, which was stably introduced into HCT116 cells. […]
Thermostable luciferase or the human IL-2 gene were cloned into pBMN L106P iBlasticidin and used to generate amphotropic retrovirus (Banaszynski, L. A. et al. (2006) Cell. 126:995-1004). […] Cells grown in 96-well plates (2×10^4 cells/well) were treated with Shield1 as indicated and either bioluminescence measured using an IVIS 50 (Xenogen Product from Caliper Life Sciences) following luciferin addition (300 μg/mL), or media collected for ELISA.

[6] = system: HCT116 L-L106P-IL-2 tumors; type: in vivo
Protocol: FIGS. 22A-22D show graphs relating to the conditional stabilization of a secreted immunomodulatory protein leads. […]. Data are represented as the average IL-2 concentration ±SEM (n=3). […]. Tumor volume was determined by caliper measurement and monitored over time. Data are represented as the average tumor volume ±SEM (n=5).
[…]. Tumors in the untreated control animals continued to increase in size over the course of the experiment. […].
(§3) SCID or CD1 nu-/nu-mice (Charles River Co.) received subcutaneous dorsal injections of ˜1×10^7 cells, and tumors were allowed to establish as indicated. Animals were given an intraperitoneal injection of luciferin (225 mg/kg), anesthetized (2% isoflurane), and placed on the warmed stage (37° C.) of an IVIS 100 or IVIS 200 (Xenogen Product from Caliper Life Sciences) for imaging. Light produced was measured as photons/sec for designated regions of interest as described. Tumor volumes were also determined by caliper measurement, and mice were sacrificed when tumors reached 1.44 cm^3 for survival assays. In some experiments, serum samples were collected by retino-orbital bleedings and tumors collected post-mortem and homogenized for ELISA assay of cytokines. All experiments were run with institutional IACUC approval.

[7] = target: T4, L-L106P-IL-2; test: IL-2 in tumor and serum of xenografted mice, ELISA; type: in vivo, CD1 nu-/nu-mice; details: 48 hr after start
Protocol: as §2
Analysis of IL-2 levels within the tumors of treated and untreated mice confirmed dose-dependent production of IL-2 at the tumor site in mice treated at 5 or 10 mg/kg Shield1 (FIG. 22C; p=0.032). […] A dose of 5 mg/kg Shield1 was sufficient to produce the same robust anti-tumor response as 10 mg/kg Shield1, while avoiding the increase in IL-2 serum levels associated with the higher ligand dose.
as §3

[8] = system: vvDD; type: cell-based, vaccinia virus
[9] = mouse, in vivo
[10] = target: FKBP F36V variant (Homo sapiens, UniProt P62942, F37V); details: Clackson et al. 1998; cited from earlier work
[11] = system: HCT116 tumors; test: vvDD L-L106P-IL-2 in mice bearing HCT116 tumors
[12] = target: FKBP-YFP fusion proteins (Homo sapiens, UniProt P62942, F37V); test: Kinetics of FKBP-YFP fluorescence upon addition of Shield1; details: L106P-YFP, various concentrations of Shield1
[13] = system: FKBP-YFP fusion proteins; test: as above

T4 sequence (P60568 with tags, fused parts or gaps): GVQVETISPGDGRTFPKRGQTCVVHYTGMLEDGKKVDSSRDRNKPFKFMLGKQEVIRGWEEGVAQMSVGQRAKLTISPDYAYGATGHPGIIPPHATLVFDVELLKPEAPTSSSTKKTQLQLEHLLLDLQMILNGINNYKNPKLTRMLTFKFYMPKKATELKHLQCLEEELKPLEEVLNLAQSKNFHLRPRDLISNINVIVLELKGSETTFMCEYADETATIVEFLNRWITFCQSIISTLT
T3 sequence (P62942 with tags, fused parts or gaps F37V): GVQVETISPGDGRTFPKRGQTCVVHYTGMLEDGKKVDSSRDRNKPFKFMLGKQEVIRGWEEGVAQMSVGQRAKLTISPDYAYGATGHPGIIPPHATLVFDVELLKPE
T1 sequence (P62942 with tags, fused parts or gaps F37V): as above
T2 sequence (P62942 2-108 V25A/F37V): as the sequence (P62942 with tags, fused parts or gaps F37V) above, with V24A, P106L counted along it
Chain of FKBP-YFP fusion proteins (Homo sapiens, UniProt P62942, F37V) (P62942 with tags, fused parts or gaps F37V): as the sequence (P62942 with tags, fused parts or gaps F37V) above
Chain of FKBP F36V variant (P62942 2-108 F37V limits assumed): as the sequence (P62942 with tags, fused parts or gaps F37V) above, with P106L counted along it

C20-methallylrapamycin [MaRap]
Pharmacokinetic properties in vivo [1]: poor pharmacokinetic properties in vivo

1-[2-(3,4,5-trimethoxy-phenyl)-butyryl]-piperazine-2-carboxylic acid 3-(3,4-dimethoxy-phenyl)-1-[3-(2-morpholin-4-yl-ethoxy)-phenyl]-propyl ester [Shield1]
Stabilization of FKBP L106P-YFP fusion protein ([2]; 1 μM Shield1): fully stabilized
EC50 ([2]; NIH3T3 cells stably expressing L106P-YFP, read-out: EC50 of Shield1 to stabilize the YFP fusion protein): ~100 nM
EC50 [3]: ~5 nM
Time for bioluminescent signals to return to background ([4]; 10 mg/kg ip): ≤ 48 h
Increase in bioluminescent signal in the presence compared to the absence of Shield1 ([4]; 10 mg/kg ip, FIG. 21B): ~10 fold
Time of maximum expression levels following treatment ([4]; 10 mg/kg ip, L106P-tsLuc, FIG. 21A): 12 h
Bioluminescence under periodic treatment ([4]; 10 mg/kg once every 48 hours): maintain increased bioluminescence levels over the course of several weeks
Bioluminescence with increasing doses ([4]; 3, 6, or 10 mg/kg): increasing bioluminescence levels
Time of peak luminescence following a single injection of ligand ([4]; FIG. 7A, luciferase fused to FKBP F36V/L106P): about 10 hours
Dynamic range of secreted IL-2 [5]: approximately 25 fold
Tumor establishment ([6]; cells pretreated with Shield1, then 10 mg/kg every 48 hours): Tumors failed to establish
Tumor burden relative to untreated animals ([6]; day 16, all Shield1-treated groups): significantly reduced tumor burden
Tumor size ([6]; i.p. 5 or 10 mg/kg every 48 hours from five days after implantation): tumor regression
IL-2 per gram tumor tissue ([7]; 5 mg/kg): more IL-2 than tumors from untreated mice
Serum IL-2 levels ([7]; 5 mg/kg): did not produce any increase in serum IL-2 levels
IL-2 per gram tumor tissue ([7]; 10 mg/kg): significantly higher levels of IL-2 than tumors from mice treated at 5 mg/kg
Serum IL-2 levels ([7]; 10 mg/kg): significantly higher levels of serum IL-2; also recorded: significantly elevated levels
Replication of the virus [8]: did not affect the replication of the virus
Feeding behavior, body weight, overall activity [9]: did not appear to affect feeding behavior, body weight, or overall activity
Binding tighter to the F36V variant compared to wild-type FKBP [10]: about 1,000 fold
Treg infiltration into tumor ([11]; delayed clearance of virus): increase in Treg infiltration
Survival of treated animals ([11]; no Shield1 during the first 72 hours after vvDD L-L106P-IL-2): greater percent survival of the treated animals
Time until YFP expression is observed [12]: ≤ 15 min
Time of maximum fluorescence after addition of Shield1 ([13]; NIH3T3 cells, FKBP-YFP variants): 24 h
Time fluorescence is stably maintained without further addition of Shield1 ([13]; after the maximum at 24 hours): ≥ 48 h
